Data: patent publication US9833497B2, “Human originated EGF domain proteins and use of the same” (CHENGDU SOURCEBIO LIMITED-LIABILITY COMPANY, priority 2013, dated 2017)

How the values were obtained:
Type in all cases: cell-based
Proteus vulgaris = assay: MIC against Gram-negative bacteria: Proteus vulgaris; details: for MIC P. vulgaris / MIC against P. vulgaris: 5×10^5 CFU/mL
Summary of the method: (§1)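 Purified recombinant human EGF domain proteins are tested by broth dilution in LB against a 5×10^5 CFU/mL inoculum, with two-fold serial dilutions run in triplicate. Plates are incubated at 37° C with shaking, and the MIC is read as the lowest protein concentration without growth.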

Aeromonas hydrophila = assay: MIC against Gram-negative bacteria: Aeromonas hydrophila; details: for MIC A. hydrophila / MIC against A. hydrophila: 5×10^5 CFU/mL
Summary of the method: as §1

Proteus mirabilis = assay: MIC against Gram-negative bacteria: Proteus mirabilis; details: for MIC P. mirabilis / MIC against P. mirabilis: 5×10^5 CFU/mL
Summary of the method: as §1

Klebsiella pneumonia = assay: MIC against Gram-negative bacteria: Klebsiella pneumonia; details: for MIC K. pneumonia / MIC against K. pneumonia: 5×10^5 CFU/mL
Summary of the method: as §1

E. coli BL21 = assay: MIC against Gram-negative bacteria: E. coli BL21; details: for MIC E. coli BL21 / MIC against E. coli BL21: 5×10^5 CFU/mL
Summary of the method: as §1

Serratia marcescens = assay: MIC against Gram-negative bacteria: Serratia marcescens; details: for MIC S. marcescens / MIC against S. marcescens: 5×10^5 CFU/mL
Summary of the method: as §1

Enterobacter cloacae = assay: MIC against Gram-negative bacteria: Enterobacter cloacae; details: for MIC E. cloacae / MIC against E. cloacae: 5×10^5 CFU/mL
Summary of the method: as §1

E. coli DH5α = assay: Antibacterial activity: MIC and growth curve against E. coli DH5α in 96-well plate; details: minimal inhibitory concentration against E. coli DH5α; 96-well plate, 5×10^5 CFU/mL, 37° C., judged after 8 h
Summary of the method: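 MIC taken as lowest protein level with no bacterial growth, tracked by A600 every 30 min during 37 °C, 175 rpm culture. Two-fold protein series 50-12.5 μg/mL final, triplicate wells, against 5×10^5 CFU/mL of LB-washed mid-log cells.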

Pseudomonas aeruginosa = assay: MIC against Gram-negative bacteria: Pseudomonas aeruginosa; details: for MIC P. aeruginosa / MIC against P. aeruginosa: 5×10^5 CFU/mL
Summary of the method: as §1

Moraxella catarrhalis = assay: MIC against Gram-negative bacteria: Moraxella catarrhalis; details: for MIC M. catarrhalis / MIC against M. catarrhalis: 5×10^5 CFU/mL
Summary of the method: as §1

Citrobacter diversus = assay: MIC against Gram-negative bacteria: Citrobacter diversus; details: for MIC C. diversus / MIC against C. diversus: 5×10^5 CFU/mL
Summary of the method: as §1

[1] = E. coli BL21, 10 h cultivation at 37° C.
[2] = 10 h cultivation at 37° C., two-fold serial dilution

Work on “PRT973 (DLPDCSPSSCFNGGTCVDGVNSFSCLCRPGYTGAHCQ; listed as Homo sapiens)” yielded an MIC (Proteus vulgaris; P. vulgaris, 10 h cultivation at 37° C.) of 25 µg/mL, an MIC (Aeromonas hydrophila; A. hydrophila, 10 h cultivation at 37° C.) of 25 µg/mL and an MIC (Proteus mirabilis; P. mirabilis, 10 h cultivation at 37° C.) of 50 µg/mL. It also gave an MIC (Klebsiella pneumonia; K. pneumonia, 10 h cultivation at 37° C.) of 50 µg/mL, an MIC (E. coli BL21; [1]) of 12.5 µg/mL and an MIC (Serratia marcescens; S. marcescens, 10 h cultivation at 37° C.) of 12.5 µg/mL. The MIC (Enterobacter cloacae; E. cloacae, 10 h cultivation at 37° C.) was 12.5 µg/mL, the MIC (E. coli DH5α) was 12.5 µg/mL and the MIC (Pseudomonas aeruginosa; P. aeruginosa, 10 h cultivation at 37° C.) was 12.5 µg/mL. It also gave an MIC (Moraxella catarrhalis; M. catarrhalis, 10 h cultivation at 37° C.) of 12.5 µg/mL and an MIC (Citrobacter diversus; C. diversus, 10 h cultivation at 37° C.) of 50 µg/mL.

In the case of “PRT1071 (ELDQCWEHCRNGGTCAASPSGMPTCRCPTGFTGPKCT; listed as Homo sapiens)”, the “MIC P. vulgaris” value (Proteus vulgaris; [2]) is reported as 50 µg/mL, the “MIC A. hydrophila” value (Aeromonas hydrophila; [2]) is reported as 25 µg/mL and the “MIC P. mirabilis” value (Proteus mirabilis; [2]) is reported as 12.5 µg/mL. For the same substance, the “MIC K. pneumonia” value (Klebsiella pneumonia; [2]) was 25 µg/mL, the “MIC E. coli BL21” value (E. coli BL21; [2]) was 25 µg/mL and the “MIC S. marcescens” value (Serratia marcescens; [2]) was 12.5 µg/mL. The “MIC E. cloacae” value (Enterobacter cloacae; [2]) was 50 µg/mL, the MIC (E. coli DH5α) was 50 µg/mL and the “MIC P. aeruginosa” value (Pseudomonas aeruginosa; [2]) was 12.5 µg/mL. The “MIC M. catarrhalis” value (Moraxella catarrhalis; [2]) was 50 µg/mL and the “MIC C. diversus” value (Citrobacter diversus; [2]) was 12.5 µg/mL.

For “PRT530 (CSCDPEHADGCEQGSGRCHCKPNFHGDNCEKCAIGYYNFPFCLR; listed as Homo sapiens)”, the “MIC against P. vulgaris” value (Proteus vulgaris; 96-well plate, 37° C., 10 h) was 12.5 µg/mL, the “MIC against A. hydrophila” value (Aeromonas hydrophila; 96-well plate, 37° C., 10 h) was 12.5 µg/mL and the “MIC against P. mirabilis” value (Proteus mirabilis; 96-well plate, 37° C., 10 h) was 25 µg/mL. The “MIC against K. pneumonia” value (Klebsiella pneumonia; 96-well plate, 37° C., 10 h) was 50 µg/mL, the “MIC against E. coli BL21” value (E. coli BL21; 96-well plate, 37° C., 10 h) was 12.5 µg/mL and the “MIC against S. marcescens” value (Serratia marcescens; 96-well plate, 37° C., 10 h) was 25 µg/mL. For the same substance, the “MIC against E. cloacae” value (Enterobacter cloacae; 96-well plate, 37° C., 10 h) was 25 µg/mL, the MIC (E. coli DH5α) was 50 µg/mL and the “MIC against P. aeruginosa” value (Pseudomonas aeruginosa; 96-well plate, 37° C., 10 h) was 25 µg/mL. The “MIC against M. catarrhalis” value (Moraxella catarrhalis; 96-well plate, 37° C., 10 h) was 50 µg/mL and the “MIC against C. diversus” value (Citrobacter diversus; 96-well plate, 37° C., 10 h) was 25 µg/mL.

With “PRT721 (DIDECTEMPFVCSQKCENVIGSYICKCAPGYLREPDGKTCR; listed as Homo sapiens)” the “MIC P. vulgaris” value (Proteus vulgaris; 96-well plate, 37° C., 10 h) was 12.5 µg/mL, the “MIC A. hydrophila” value (Aeromonas hydrophila; 96-well plate, 37° C., 10 h) was 12.5 µg/mL and the “MIC P. mirabilis” value (Proteus mirabilis; 96-well plate, 37° C., 10 h) was 12.5 µg/mL. For the same substance, the “MIC K. pneumonia” value (Klebsiella pneumonia; 96-well plate, 37° C., 10 h) was 50 µg/mL, the “MIC E. coli BL21” value (E. coli BL21; 96-well plate, 37° C., 10 h) was 12.5 µg/mL and the “MIC S. marcescens” value (Serratia marcescens; 96-well plate, 37° C., 10 h) was 50 µg/mL. The “MIC E. cloacae” value (Enterobacter cloacae; 96-well plate, 37° C., 10 h) was 25 µg/mL, the MIC (E. coli DH5α) was 25 µg/mL and the “MIC P. aeruginosa” value (Pseudomonas aeruginosa; 96-well plate, 37° C., 10 h) was 25 µg/mL. The “MIC M. catarrhalis” value (Moraxella catarrhalis; 96-well plate, 37° C., 10 h) was 50 µg/mL and the “MIC C. diversus” value (Citrobacter diversus; 96-well plate, 37° C., 10 h) was 25 µg/mL.

For “PRT698 (DVDECARSPPPCTYGRCENTEGSFQCVCPMGFQPNTAGSECE; listed as Homo sapiens)”, the “MIC P. vulgaris” value (Proteus vulgaris; 96-well plate, 37° C., 10 h) was 25 µg/mL, the “MIC A. hydrophila” value (Aeromonas hydrophila; 96-well plate, 37° C., 10 h) was 12.5 µg/mL and the “MIC P. mirabilis” value (Proteus mirabilis; 96-well plate, 37° C., 10 h) was 25 µg/mL. The “MIC K. pneumonia” value (Klebsiella pneumonia; 96-well plate, 37° C., 10 h) was 50 µg/mL, the “MIC E. coli BL21” value (E. coli BL21; 96-well plate, 37° C., 10 h) was 25 µg/mL and the “MIC S. marcescens” value (Serratia marcescens; 96-well plate, 37° C., 10 h) was 12.5 µg/mL. For the same substance, the “MIC E. cloacae” value (Enterobacter cloacae; 96-well plate, 37° C., 10 h) was 25 µg/mL, the MIC (E. coli DH5α) was 50 µg/mL and the “MIC P. aeruginosa” value (Pseudomonas aeruginosa; 96-well plate, 37° C., 10 h) was 12.5 µg/mL. The “MIC M. catarrhalis” value (Moraxella catarrhalis; 96-well plate, 37° C., 10 h) was 50 µg/mL and the “MIC C. diversus” value (Citrobacter diversus; 96-well plate, 37° C., 10 h) was 25 µg/mL.

In the case of “PRT1392 (TELCTMECGSHGVCSRGICQCEEGWVGPTC; listed as Homo sapiens)”, the “MIC against P. vulgaris” value (Proteus vulgaris; Proteus vulgaris, 10 h cultivation at 37° C.) is reported as 25 µg/mL, the “MIC against A. hydrophila” value (Aeromonas hydrophila; Aeromonas hydrophila, 10 h cultivation at 37° C.) is reported as 25 µg/mL and the “MIC against P. mirabilis” value (Proteus mirabilis; Proteus mirabilis, 10 h cultivation at 37° C.) is reported as 12.5 µg/mL. The “MIC against K. pneumonia” value (Klebsiella pneumonia; Klebsiella pneumonia, 10 h cultivation at 37° C.) was 25 µg/mL, the “MIC against E. coli BL21” value (E. coli BL21; [1]) was 25 µg/mL and the “MIC against S. marcescens” value (Serratia marcescens; Serratia marcescens, 10 h cultivation at 37° C.) was 50 µg/mL. For the same substance, the “MIC against E. cloacae” value (Enterobacter cloacae; Enterobacter cloacae, 10 h cultivation at 37° C.) was 12.5 µg/mL, the MIC (E. coli DH5α) was 12.5 µg/mL and the “MIC against P. aeruginosa” value (Pseudomonas aeruginosa; Pseudomonas aeruginosa, 10 h cultivation at 37° C.) was 12.5 µg/mL. For the same substance, the “MIC against M. catarrhalis” value (Moraxella catarrhalis; Moraxella catarrhalis, 10 h cultivation at 37° C.) was 25 µg/mL and the “MIC against C. diversus” value (Citrobacter diversus; Citrobacter diversus, 10 h cultivation at 37° C.) was 12.5 µg/mL.

For “PRT519 (CQCNDNLDFSIPGSCDSLSGSCLICKPGTTGRYCELCADGYFGDAVDAKNCQP; listed as Homo sapiens)”, the “MIC against P. vulgaris” value (Proteus vulgaris; 96-well plate, 37° C., 10 h) was 25 µg/mL, the “MIC against A. hydrophila” value (Aeromonas hydrophila; 96-well plate, 37° C., 10 h) was 25 µg/mL and the “MIC against P. mirabilis” value (Proteus mirabilis; 96-well plate, 37° C., 10 h) was 12.5 µg/mL. For the same substance, the “MIC against K. pneumonia” value (Klebsiella pneumonia; 96-well plate, 37° C., 10 h) was 25 µg/mL, the “MIC against E. coli BL21” value (E. coli BL21; 96-well plate, 37° C., 10 h) was 12.5 µg/mL and the “MIC against S. marcescens” value (Serratia marcescens; 96-well plate, 37° C., 10 h) was 12.5 µg/mL. For the same substance, the “MIC against E. cloacae” value (Enterobacter cloacae; 96-well plate, 37° C., 10 h) was 12.5 µg/mL, the MIC (E. coli DH5α) was 25 µg/mL and the “MIC against P. aeruginosa” value (Pseudomonas aeruginosa; 96-well plate, 37° C., 10 h) was 12.5 µg/mL. For the same substance, the “MIC against M. catarrhalis” value (Moraxella catarrhalis; 96-well plate, 37° C., 10 h) was 25 µg/mL and the “MIC against C. diversus” value (Citrobacter diversus; 96-well plate, 37° C., 10 h) was 12.5 µg/mL.
